Assay results: patent US20240016850A1, “CELL-NANOPARTICLE DRUG DELIVERY SYSTEM AND USE OF THE SAME FOR INHIBITING GROWTH OF TUMOR CELLS AND DIAGNOSING TUMOR CELLS” (priority 2022, published 2024)

Experiments:
[1] = Gd3+ release from gadodiamide and Gd-FPFNP (dialysis, Xylenol orange); assay type: physicochemical; settings: 24th hour; 1.05 mM gadodiamide; PBS, 37° C.
Method: In order to monitor the in vitro release of gadolinium(III) ions (Gd^3+) from gadodiamide and Gd-FPFNP, a respective one of gadodiamide at concentration of 1.05 mM and Gd-FPFNP that was loaded with 1.05 mM of gadodiamide were incubated in DMEM, and then added into a dialysis tube with cellulose membrane having a molecular weight cutoff of 1 kDa, followed by immersing the dialysis tube in 10 mL of PBS and stirring at 37° C. Thereafter, 0.5 mL aliquots of the PBS were taken out at the 3rd hour and 24th hour of stirring, followed by addition of Xylenol orange agent and analysis using a UV-Vis detector conducted according to procedures described by Barge A. et al., in an article entitled “How to determine free Gd and free ligand in solution of Gd chelates. A technical note.” published in Contrast Media Mol. Imaging, 2006, Vol. 1, p. 184-188, so as to determine the amount of Gd^3+ released in vitro.

[2] = Biodistribution in vital organs with different treatment regimens (ICP-MS); assay type: in vivo, rat; settings: 24th hour post-administration
Excerpt: In order to determine the differences in biodistribution of the cell-nanoparticle drug delivery system with those of gadodiamide and Gd-FPFNP in vital organs, the orthotopic GBM-bearing rats prepared in section B above were divided into 4 groups, namely, comparative groups 1 and 2 (CG1 and CG2), and experimental groups 1 and 2 (EG1 and EG2), with n=4 per each group. […] At the 24th hour post-administration, the orthotopic GBM-bearing rats in each group were sacrificed, and the blood and tissues from the heart, liver, spleen, lung, kidney, intestine, left brain and right brain were subjected to the pre-processing steps as described in section E above, and then subjected to quantification of elemental gadolinium (Gd) content by ICP-MS system as described in Item 5 of section B in Example 1. The results were expressed as percentage of administered (injected) dose per gram tissue (ID/g), calculated using the aforesaid formula (3), and shown in FIG. 16.

concentration of Gd3+ released [1]: 38.6 µM
elemental gadolinium in vital organs [2]: not or hardly detected
SMILES: CNC(=O)CN(CCN(CCN(CC(=O)[O-])CC(=O)NC)CC(=O)[O-])CC(=O)[O-].[Gd+3] [gadodiamide, Gadodiamide]
